Assay results from PMC7943599, “ATP signaling in the integrative neural center of Aplysia californica” (Scientific Reports, 2021).

How the values were obtained:
[1] = biological target: T1, AcP2X (Aplysia P2X receptor) (Aplysia californica, UniProt E2QDA7); assay: two-electrode voltage clamp in Xenopus oocytes, agonist dose-response (fast component; slow component EC50 […]); assay type: cell-based
T1 construct: full-length CDS AcP2X (GenBank NP_001191558.1) expressed in Xenopus oocytes
T1 sequence (E2QDA7 1-434): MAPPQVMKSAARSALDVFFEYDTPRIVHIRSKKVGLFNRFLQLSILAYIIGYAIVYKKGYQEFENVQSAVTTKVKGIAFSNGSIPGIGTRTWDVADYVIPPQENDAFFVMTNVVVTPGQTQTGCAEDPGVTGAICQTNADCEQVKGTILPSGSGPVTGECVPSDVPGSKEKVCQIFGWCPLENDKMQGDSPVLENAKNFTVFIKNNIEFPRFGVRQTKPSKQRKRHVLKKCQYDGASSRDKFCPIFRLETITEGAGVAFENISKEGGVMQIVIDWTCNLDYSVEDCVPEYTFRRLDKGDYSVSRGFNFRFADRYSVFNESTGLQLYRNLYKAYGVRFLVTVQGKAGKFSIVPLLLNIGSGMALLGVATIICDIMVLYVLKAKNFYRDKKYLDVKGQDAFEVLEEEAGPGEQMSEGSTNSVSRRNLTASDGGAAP

[2] = biological target: T1, AcP2X (Aplysia P2X receptor); assay: two-electrode voltage clamp in Xenopus oocytes, inhibition of current evoked by […] ATP (fast component); assay type: cell-based

SMILES	EC50 [1]	IC50 [2]
Nc1ncnc2c1ncn2[C@@H]1O[C@H](COP(=O)(O)OP(=O)(O)OP(=O)(O)O)[C@@H](O)[C@H]1O [ATP]	306 µM	
Cc1nc(/N=N/c2ccc(S(=O)(=O)O)cc2S(=O)(=O)O)c(COP(=O)(O)O)c(C=O)c1O [PPADS]		211 µM
